Legend:
erythropoietin (EPO) = assay: EPO RNA expression in neonatal rat brain (RT-PCR); format: in vivo, Sprague Dawley rats; settings: neonatal rat brains, 75% xenon 2 h, harvested 0-24 h after
Experimental: Neonatal rats (7 days) Sprague Dawley rats were used. All procedures were approved by the Home Office.
C=Rat hippocampal brain control stored in −80° C. 0=Rat hippocampal brain treated with xenon for 2 hrs, sacrificed immediately after and stored in −80° C. 2=Rat hippocampal brain treated with xenon for 2 hrs, sacrificed 2 hrs later and stored in −80° C. 4=Rat hippocampal brain treated with xenon for 2 hrs, sacrificed 4 hrs later and stored in −80° C. 8=Rat hippocampal brain treated with xenon for 2 hrs, sacrificed 8 hrs later and stored in −80° C. 24=Rat hippocampal brain treated with xenon for 2 hrs, sacrificed 24 hrs later and stored in −80° C. P2=Rat hippocampal brain positive control with ischaemia injury for 45 mins, harvested after 24 hrs, stored in −80° C.
Total RNA was extracted from neonatal rat brains.
Reverse transcription of the RNA in order to obtain the first-strand cDNA was carried out using techniques well known in the art. […]
The resulting PCR amplification products were electrophoresed on a 1×TAE agarose gel in 1×TAE buffer and visualised using Fluor-S MultiImager BIORAD. […] As the level of fluorescence is approximately proportional to the amount of intercalated ethidium bromide, the abundance of amplified DNA within samples can be compared; in other words, the level of expression of a gene of interest can be determined. […]

brain [1] = assay: Cortical infarction in neonatal rat brain, xenon and cooling; format: in vivo, Sprague Dawley rats; design: Total area of infraction: unit not given here
Experimental: Sprague Dawley, 7 day neonatal rats were used. All procedures were approved by the Home Office.
The neonatal rats were exposed to: • (i) 20% xenon alone for 2 hours; • (ii) 35° C. hypothermia for 90 minutes; or • (iii) Hypothermia (35° C.) for 90 minutes before, 1 hour later, 20% xenon for 2 hours.
The gas was administered by gas inhalation.
The brains of said rats were then harvested at a set time after exposure to the xenon gas. A total of 11 rats were examined for each treatment group.
The brains were assessed for cortical infarction in the affected hemisphere.
The “intervention” rats under went an ischaemic injury to the brain.

VEGF = VEGF expression in adult mice brains (western blot); format: in vivo, C57BL/6J mice; settings: 75% xenon and 25% oxygen 2 h, harvested 0-48 h after
Experimental: Studies were performed on 8 to 12-wk-old C57BL/6J mice (Jackson Labs, Bar Harbor, Me.) that were fed a standard laboratory diet. All procedures were approved by the Home Office.
The mice were exposed to 75% xenon and 25% oxygen for two hours. The xenon gas was administered to the mice by inhalation. The brains of said adult mice were then harvested as described below between 0-48 hours after exposure to the xenon gas.
The tissues were homogenised and western blots of adult mice brain samples were carried out as described in Example 1.
The primary antibodies were anti-α-tubulin antibody, and monoclonal mouse anti-VEGF antibody.

NMDA receptor = settings: 80% xenon, cultured hippocampal neurons; cited from earlier work
main organs = settings: xenon exposure (Natale et al 1998); cited from earlier work
brain [2] = settings: administered 4 hours after hypoxic-ischaemic injury, neonatal rats; cited from earlier work

For `[Xe]` [xenon], the “EPO expression (RNA)” value (erythropoietin (EPO)) was “time-dependent increase”, the “Total area of infraction” value (brain [1]; Control rats, 20% xenon alone column) was 88.3 (±4.1) and the “Total area of infraction” value (brain [1]; Control rats, combination column) was 92.7 (±6.7). The “Total area of infraction” value (brain [1]; Intervention rats (ischaemic injury), 20% xenon alone for 2 hours) was 85.3 (±8.9), the “Total area of infraction” value (brain [1]; Intervention rats (ischaemic injury), combination: hypothermia 35° C. 90 min, 1 hour later 20% xenon 2 hours) was 74.1 (±7.8) and the “interaction of xenon and cooling on area of infraction” value (brain [1]; hypothermia followed by xenon, administered asynchronously) was “synergy”. The “expression of VEGF” value (VEGF) was “time-dependent increase”, the “reduction of NMDA-activated currents” value (NMDA receptor) was “up to 60%” and the “toxic effects on main organs” value (main organs) was “does not induce significant toxic effects”. The “neuroprotection by combination of xenon and hypothermia” value (brain [2]) was “synergistic neuroprotection”.
